Experimental findings from publication PMC9127750, “Structure-based design of CDC42 effector interaction inhibitors for the treatment of cancer” (Cell reports, 2022) are described below.

The structures appear in SMILES notation.

In assay [1] the test system is panel of 47 classical pharmacological targets. In words: Off-target panel (agonist/antagonist). Conditions: concentrations up to 25 μM.
Another assay concerns ERK phosphorylation. In words: Immunoblotting pERK. Format: cell-based, Human. Conditions: A375 and WM3248; 10 and 20 μM at 6 h, 5 μM at 24 h. As for the experimental part:
[…]. ImageJ was used to perform densitometry.
A375 cells were maintained in DMEM (plus high glucose, L-glutamine, sodium pyruvate) supplemented with 10% FBS, 1% MEM NEAA and 1% antibiotic-antimycotic. WM3248 cells were maintained in 80% MCDB153 pH 7.30, 20% Leibovitz’s L-15, 2% FBS, 5 ug/mL insulin (bovine), 1.68 mM CaCl2, and 1% antibiotic-antimycotic. All cells were kept in 5% CO2 incubator at 37°C.
In general terms: A western blot detects proteins with antibodies after separation by electrophoresis.

Turning to `CN(C)c1cccc(Nc2cc(-c3ccccc3)nc(C3CCNCC3)n2)c1` [ARN22089, N1,N1-dimethyl-N3-(6-phenyl-2-(piperidin-4-yl)pyrimidin-4-yl)benzene-1,3-diamine], the “off-target effects as an agonist or an antagonist” value in assay [1] is on record as “no significant off-target effects”. For the same compound, the “ERK phosphorylation (immunoblot)” value in the assay on ERK phosphorylation is “inhibited ERK phosphorylation”.
